Source: patent US20250186463A1, “ABIRATERONE DECANOATE PRODRUGS AND USE IN THERAPY” (PROPELLA THERAPEUTICS, INC., priority 2022, published 2025)

Tests used:
[1] = tested on: Prostate Specific Antigen (PSA); assay: Phase 1/2a study: PSA response; assay type: in vivo, human; settings: for Undetectable PSA: defined as PSA < 0.2 ng/mL
Protocol: (§1) This is a Phase 1/2a, Open-label, Multicenter Study of Intramuscular Abiraterone Decanoate Depot in Patients with Advanced Prostate Cancer.
(§2) Formulations and dosing regimen: The formulation used in the study (abiraterone decanoate for intramuscular [i.m.] injection) is a solution formulation of abiraterone decanoate at a concentration of 180 mg/mL and will be provided as a 10 mL vial containing 990 mg of abiraterone decanoate in 5.5 mL of solution. See further details of the formulations in Example 2 (for each milliliter: Abiraterone Decanoate, about 180 mg/mL; Benzyl Alcohol, about 100 mg/mL; Benzyl Benzoate, about 200 mg/mL; and Corn oil, q.s. to 1 mL). Abiraterone Decanoate will be administered as an i.m. injection every 84 days (±3 days). Dose escalation will proceed with a modified Fibonacci sequence. Based on emerging data, intermediate doses may be evaluated.
(§3) Study Design: This is a Phase 1/2a, Open-label, Multicenter Study of Intramuscular Abiraterone Decanoate Depot in Patients with Advanced Prostate Cancer. In Phase 1, all patients will receive i.m. Abiraterone Decanoate depot in 84-day treatment cycles combined with daily oral prednisone or dexamethasone. In Phase 2a, patients will be randomized 1:1 and treated with i.m. Abiraterone Decanoate depot in 84-day treatment cycles in combination with dexamethasone (Arm A) or abiraterone acetate daily+prednisone (Arm B). In both Phases, patients will undergo scheduled periodic assessments of serum testosterone levels. Participants may continue treatment until they meet any discontinuation criteria outlined in the protocol.
(§4) Pharmacodynamic Analysis: Determination of Prostate Specific Antigen (PSA), serum testosterone, dehydroepiandrosterone (DHEA), dehydroepiandrosterone sulfate (DHEA-S), androstenedione, dihydrotestosterone (DHT), progesterone, cortisol, adrenocorticotropic hormone (ACTH), corticosterone, 11-dexoycorticosterone (11-DOC) and 11-deoxycortisol.
(§5) Based on the available data, the recommended dose for Phase 2 is about 1260 mg abiraterone decanoate once every three months (12 weeks). All cohorts 1 and 2 in this clinical study were treated with prednisone, 5 mg orally once or twice daily; and all cohorts 3-5 were treated with dexamethasone, 0.5 mg orally once daily. The results shown herein for these cohorts should be understood accordingly.
PSA Levels: the median baseline PSA level was 3.01 ng/mL. […] The table below further summarizes the reduction of PSA observed without elevated progesterone level.

[2] = tested on: serum progesterone; assay: Phase 1/2a study: serum progesterone; assay type: in vivo, human
Protocol: as §1, §2, §3, §4, §5
See also Table 3B below. […] See also FIG. 11B for the absolute serum progesterone levels for cohorts 4 and 5, with the LLOQ being 1.59 nM. It should be noted that the maximum serum progesterone level observed for cohorts 1-3 is 2.5 nM. FIGS. 3F and 3G show the serum 11-deoxycorticosterone and corticosterone response in cohorts 3, 4, and 5, the trend is similar to that observed for progesterone levels above. See a summary shown in the Table 3C below for the first cycle.

CCCCCCCCCC(=O)O[C@H]1CC[C@@]2(C)C(=CC[C@@H]3[C@@H]2CC[C@]2(C)C(c4cccnc4)=CC[C@@H]32)C1 [abiraterone decanoate]
percentages of patients achieving PSA50 and 90 versus those reported for abiraterone acetate (AA) and enzalutamide (Enza) ([1]; Chemo-naïve CRPC, FIGS. 9A and 9B): much higher
PSA at follow-up ([1]; Patient 1, 180 mg, CSPC, enzalutamide started after study): below LLOQ
patients with PSA50 ([1]; cohorts 3, 4, and 5): 15 out of 16
patients with PSA90 ([1]; cohorts 3, 4, and 5): 8 out of 16
Best PSA Response ([1]; patient 02-1403, Cohort 4, 1260 mg, mCRPC, Visit C4D28): −98%
Undetectable PSA ([1]; patient 02-1403, Cohort 4, 1260 mg, mCRPC): No
Best PSA Response ([1]; patient 02-1405, Cohort 4, 1260 mg, mCRPC, Visit C1D56): −94%
Undetectable PSA ([1]; patient 02-1405, Cohort 4, 1260 mg, mCRPC): No
Best PSA Response ([1]; patient 02-1504, Cohort 5, 1800 mg, mCRPC, Visit C1D28): −92.4
Undetectable PSA ([1]; patient 02-1504, Cohort 5, 1800 mg, mCRPC): No
Best PSA Response ([1]; patient 02-1505, Cohort 5, 1800 mg, mCSPC, Visit C1D84): −98%
Undetectable PSA ([1]; patient 02-1505, Cohort 5, 1800 mg, mCSPC): No
Best PSA Response ([1]; patient 04-1406, Cohort 4, 1260 mg, mCSPC, Visit C1D56): −82%
Undetectable PSA ([1]; patient 04-1406, Cohort 4, 1260 mg, mCSPC): No
Best PSA Response ([1]; patient 04-1503, Cohort 5, 1800 mg, mCSPC, Visit C1D84): −67%
Undetectable PSA ([1]; patient 04-1503, Cohort 5, 1800 mg, mCSPC): Yes
Best PSA Response ([1]; patient 04-1506, Cohort 5, 1800 mg, mCRPC, Visit C1D28): −54%
Undetectable PSA ([1]; patient 04-1506, Cohort 5, 1800 mg, mCRPC): No
Best PSA Response ([1]; patient 06-1401, Cohort 4, 1260 mg, mCRPC, Visit C3D84): −99.97%
Undetectable PSA ([1]; patient 06-1401, Cohort 4, 1260 mg, mCRPC): Yes
Best PSA Response ([1]; patient 06-1402, Cohort 4, 1260 mg, mCRPC, Visit C4D28): −93%
Undetectable PSA ([1]; patient 06-1402, Cohort 4, 1260 mg, mCRPC): No
Best PSA Response ([1]; patient 06-1404, Cohort 4, 1260 mg, mCSPC, Visit C2D84): −67%
Undetectable PSA ([1]; patient 06-1404, Cohort 4, 1260 mg, mCSPC): Yes
Best PSA Response ([1]; patient 06-1501, Cohort 5, 1800 mg, mCRPC, Visit C1D84): 48%
Undetectable PSA ([1]; patient 06-1501, Cohort 5, 1800 mg, mCRPC): No
Best PSA Response ([1]; patient 06-1502, Cohort 5, 1800 mg, mCSPC, Visit C2D84): −99.6%^
Undetectable PSA ([1]; patient 06-1502, Cohort 5, 1800 mg, mCSPC): Yes
Progesterone Changes during cycle 1, Percent (%) ([2]; 720 mg (N = 4), Day 14): −1%
Progesterone Changes during cycle 1, Percent (%) ([2]; 720 mg (N = 4), Day 28): −2%
Progesterone Changes during cycle 1, Percent (%) ([2]; 720 mg (N = 4), Day 56): 0%
Progesterone Changes during cycle 1, Percent (%) ([2]; 720 mg (N = 4), Day 84): 0%
Progesterone Changes during cycle 1, Percent (%) ([2]; 1,260 mg (N = 6), Day 14): 20%
Progesterone Changes during cycle 1, Percent (%) ([2]; 1,260 mg (N = 6), Day 28): 35%
Progesterone Changes during cycle 1, Percent (%) ([2]; 1,260 mg (N = 6), Day 56): 0%
Progesterone Changes during cycle 1, Percent (%) ([2]; 1,260 mg (N = 6), Day 84): 0%
Progesterone Changes during cycle 1, Percent (%) ([2]; 1,800 mg (N = 8), Day 14): 165%
Progesterone Changes during cycle 1, Percent (%) ([2]; 1,800 mg (N = 8), Day 28): 86%
Progesterone Changes during cycle 1, Percent (%) ([2]; 1,800 mg (N = 8), Day 56): 12%
Progesterone Changes during cycle 1, Percent (%) ([2]; 1,800 mg (N = 8), Day 84): 13%
Serum Progesterone (% CFB) ([2]; Cohort 1, 180 mg i.m., Study Day 1 (baseline)): 0%
Serum Progesterone (% CFB) ([2]; Cohort 1, 180 mg i.m., Study Day 14): 0%
Serum Progesterone (% CFB) ([2]; Cohort 1, 180 mg i.m., Study Day 28): 8%
Serum Progesterone (% CFB) ([2]; Cohort 1, 180 mg i.m., Study Day 56): 0%
Serum Progesterone (% CFB) ([2]; Cohort 1, 180 mg i.m., Study Day 70): 0%
Serum Progesterone (% CFB) ([2]; Cohort 2, 360 mg i.m., Study Day 1 (baseline)): 0%
Serum Progesterone (% CFB) ([2]; Cohort 2, 360 mg i.m., Study Day 14): 37%
Serum Progesterone (% CFB) ([2]; Cohort 2, 360 mg i.m., Study Day 28): 8%
Serum Progesterone (% CFB) ([2]; Cohort 2, 360 mg i.m., Study Day 56): 0%
Serum Progesterone (% CFB) ([2]; Cohort 2, 360 mg i.m., Study Day 84): 0%
